Structures are written as SMILES. Where a name gives a salt, the structure may show the parent alone.

`CCCCCCCCCCCCCOC(=O)c1ccccc1C(=O)OCCCCCCCCCCCCC` [ditridecyl benzene-1,2-dicarboxylate] displayed a flash point of 238.00 °C.
With `C=CCCCCCCCCCC` [dodec-1-ene] the figure was 100.00 °C; with `CCCCCCCCCCCCO` [dodecan-1-ol], 127.00 °C; with `CCCCCCCCCCCCS` [dodecane-1-thiol], 88.00 °C.
The compound `CCCCCCCCCCCCc1ccccc1` [dodecylbenzene] had a flash point of 135.00 °C.
Regarding `NCCN` [ethane-1,2-diamine], the flash point was 34.00 °C.
`OCCO` [ethane-1,2-diol] yielded a flash point of 111.00 °C.
As for `CC` [ethane], the flash point was -135.00 °C.
With `CC(=O)OO` [ethaneperoxoic acid] the figure was 41.00 °C.
`C=COC(C)=O` [ethenyl acetate] had a flash point of -8.00 °C.
The compound `C=COC(=O)CCC` [ethenyl butanoate] returned a flash point of 20.00 °C.
Then `CCOCC.FB(F)F` [ethoxyethane;trifluoroborane], with 64.00 °C; and `CCOC(=O)CCl` [ethyl 2-chloroacetate], with 38.00 °C.
Turning to `CCOC(=O)CC#N` [ethyl 2-cyanoacetate], the flash point was found to be 110.00 °C.
With `CCOC(=O)Cc1ccccc1` [ethyl 2-phenylacetate], the flash point is 99.00 °C.
In turn, `CCOCCC(=O)OCC` [ethyl 3-ethoxypropanoate] showed a flash point of 59.00 °C.
`CCOC(=O)CC(C)=O` [ethyl 3-oxobutanoate] showed a flash point of 57.00 °C.
The compound `CCOC(=O)NCCOc1ccc(Oc2ccccc2)cc1` [ethyl N-[2-(4-phenoxyphenoxy)ethyl]carbamate] registered a flash point of 224.00 °C.
As for `CCOC(C)=O` [ethyl acetate], the flash point is -4.00 °C.
Take `CCOP(=O)(O)O` [ethyl dihydrogen phosphate]: the flash point was found to be 116.00 °C.
Consider `CCOC=O` [ethyl formate], for which the flash point was -20.00 °C.
`CCOS(C)(=O)=O` [ethyl methanesulfonate]: the flash point came to 100.00 °C.
The compound `C=CC(=O)OCC` [ethyl prop-2-enoate] had a flash point of 9.00 °C.
The compound `CCc1ccccc1` [ethylbenzene] had a flash point of 15.00 °C.
Consider `Fc1ccccc1` [fluorobenzene], for which the flash point was -15.00 °C.
Then `C=O.O=C=Nc1ccccc1` [formaldehyde;isocyanatobenzene], with 218.00 °C.
`C=O` [formaldehyde] came in with a flash point of 60.00 °C.
`NC=O` [formamide]: the flash point was determined as 154.00 °C.
Then `O=CO` [formic acid], with 69.00 °C; and `O=C1C=CC(=O)O1` [furan-2,5-dione], with 103.00 °C.
In turn, `NCc1ccco1` [furan-2-ylmethanamine] returned a flash point of 37.00 °C.
Compound `C=CCCCCC` [hept-1-ene] gave a flash point of -4.00 °C.
For the compound `CCCCCCCS` [heptane-1-thiol], the flash point was 46.00 °C.
`C=CCCCC` [hex-1-ene] yielded a flash point of -26.00 °C.
On to `CCCCCCCCCCCCCCCCS` [hexadecane-1-thiol], for which the flash point was 102.00 °C.
Then `CCCCCCN` [hexan-1-amine], with 29.00 °C; and `CCCCC(C)O` (stereo not given) [hexan-2-ol], with 41.00 °C; and `CCCCCCS` [hexane-1-thiol], with 20.00 °C.
Take `CCCC(=O)C(C)=O` [hexane-2,3-dione]: the flash point was determined as 28.00 °C.
On to `CC(=O)CCC(C)=O` [hexane-2,5-dione], for which the flash point stood at 79.00 °C.
Regarding `N#CCCCCC#N` [hexanedinitrile], the flash point was 93.00 °C.
With `CCCCCC(=O)O` [hexanoic acid] the figure was 104.00 °C; with `C=C(C)C(=O)OCCCCCC` [hexyl 2-methylprop-2-enoate], 82.00 °C; with `CCCCCCOC(C)=O` [hexyl acetate], 37.00 °C.
As for `S=C1NCCN1` [imidazolidine-2-thione], the flash point was determined as 252.00 °C.
Consider `CCI` [iodoethane], for which the flash point is 61.00 °C.
Then `O=C=NC1CCCCC1` [isocyanatocyclohexane], with 49.00 °C; and `C` [methane], with -188.00 °C.
`S=C=S` [methanedithione]: the flash point is -30.00 °C.
Consider `CS` [methanethiol], for which the flash point was -18.00 °C.
In turn, `CCOC` [methoxyethane] had a flash point of -37.00 °C.
Then `C=COC` [methoxyethene], with -56.00 °C; and `COC(=O)C(Cl)Cl` [methyl 2,2-dichloroacetate], with 80.00 °C.
Compound `CNc1ccccc1C(=O)OC` [methyl 2-(methylamino)benzoate] had a flash point of 91.00 °C.
`COC(=O)C(C)Oc1ccc(Oc2ccc(Cl)cc2Cl)cc1` (stereo not given) [methyl 2-[4-(2,4-dichlorophenoxy)phenoxy]propanoate]: the flash point came out at 38.00 °C.
The compound `COC(=O)c1ccccc1O` [methyl 2-hydroxybenzoate] gave a flash point of 96.00 °C.
`COS(=O)(=O)c1ccc(C)cc1` [methyl 4-methylbenzenesulfonate] displayed a flash point of 152.00 °C.
Turning to `COC(=O)c1ccc(C)cc1` [methyl 4-methylbenzoate], the flash point was 96.00 °C.
Regarding `COC(=O)/C=C(\C)OP(=O)(OC)OC` [methyl (E)-3-dimethoxyphosphoryloxybut-2-enoate], the flash point was 79.00 °C.
With `COC(C)=O` [methyl acetate] the figure was -10.00 °C.
On to `CCCC(=O)OC` [methyl butanoate], for which the flash point came to 14.00 °C.
On to `CCCCCC(=O)OC` [methyl hexanoate], for which the flash point came to 73.00 °C.
For the compound `COS(C)(=O)=O` [methyl methanesulfonate], the flash point worked out at 104.00 °C.
In the case of `CCCCCCCCCCCCCCCCCC(=O)OC` [methyl octadecanoate], the flash point stood at 153.00 °C.
The compound `C=CC(=O)OC` [methyl prop-2-enoate] came in with a flash point of 7.00 °C.
The compound `CCC(=O)OC` [methyl propanoate] gave a flash point of -2.00 °C.
As to `CS(C)=O` [methylsulfinylmethane], the flash point was 95.00 °C.
`Nc1cccc2ccccc12` [naphthalen-1-amine] displayed a flash point of 157.00 °C.
For the compound `Oc1cccc2c(O)cccc12` [naphthalene-1,5-diol], the flash point is 252.00 °C.
The compound `c1ccc2ccccc2c1` [naphthalene] had a flash point of 88.00 °C.
`C[N+](=O)[O-]` [nitromethane] yielded a flash point of 35.00 °C.
For `C=CCCCCCCC` [non-1-ene], the flash point is 26.00 °C.
Regarding `CCCCCCCCC=O` [nonanal], the flash point was 83.00 °C.
The compound `O=C(O)CCCCCCCC(=O)O` [nonanedioic acid] came in with a flash point of 210.00 °C.
For the compound `CCCCCCCCC(=O)O` [nonanoic acid], the flash point amounted to 133.00 °C.
Then `C=CCCCCCC` [oct-1-ene], with 21.00 °C; and `CCCCCCCCCCCCCCCCCCN` [octadecan-1-amine], with 149.00 °C.
With `CCCCCCCCCCCCCCCCCCS` [octadecane-1-thiol] the figure was 185.00 °C; with `CCCCCCCCCCCCCCCCCCOC(=O)CCCCCCCCCCCCCCC` [octadecyl hexadecanoate], 238.00 °C; with `CCCCCC(=O)CC` [octan-3-one], 46.00 °C.
Then `CCCCCCCC=O` [octanal], with 52.00 °C.
Compound `CCCCCCCC(=O)O` [octanoic acid] displayed a flash point of 110.00 °C.
`C=C(C)C(=O)OCCCCCCCC` [octyl 2-methylprop-2-enoate]: the flash point was 91.00 °C.
With `C=CC(=O)OCCCCCCCC` [octyl prop-2-enoate] the figure was 82.00 °C; with `O=CC=O` [oxaldehyde], 220.00 °C.
With `O=C1CCO1` [oxetan-2-one], the flash point turned out to be 70.00 °C.
In turn, `C=CC(=O)OCC1CO1` (stereo not given) [oxiran-2-ylmethyl prop-2-enoate] returned a flash point of 61.00 °C.
`C1CO1` [oxirane] came in with a flash point of -18.00 °C.
Regarding `O=C1CCCO1` [oxolan-2-one], the flash point worked out at 98.00 °C.
`OCC1CCCO1` (stereo not given) [oxolan-2-ylmethanol]: the flash point was found to be 75.00 °C.
Turning to `O=C1CCC(=O)O1` [oxolane-2,5-dione], the flash point was 157.00 °C.
`C1CCOC1` [oxolane] gave a flash point of -14.00 °C.
With `C=CCCC` [pent-1-ene] the figure was -51.00 °C; with `C=CC=CC` [penta-1,3-diene], -28.00 °C; with `CCCC(C)OC(C)=O` (stereo not given) [pentan-2-yl acetate], 32.00 °C.
With `CCC(O)CC` [pentan-3-ol] the figure was 30.00 °C.
As to `NCCCCCN` [pentane-1,5-diamine], the flash point was determined as 62.00 °C.
With `OCCCCCO` [pentane-1,5-diol], the flash point was determined as 129.00 °C.
`CCC(=O)C(C)=O` [pentane-2,3-dione]: the flash point is 19.00 °C.
`CCCCCOC(C)=O` [pentyl acetate] registered a flash point of 33.00 °C.
In turn, `CCCCCOC=O` [pentyl formate] had a flash point of 26.00 °C.
Consider `CCCCCO[N+](=O)[O-]` [pentyl nitrate], for which the flash point is 49.00 °C.
As for `CCCCCOC(=O)CC` [pentyl propanoate], the flash point turned out to be 41.00 °C.
Then `c1ccc(Oc2ccccc2)cc1` [phenoxybenzene], with 115.00 °C; and `CC(=O)Oc1ccccc1` [phenyl acetate], with 80.00 °C.

The values are drawn from a flash point compilation (Sun et al. 2020).
